According to ChEMBL document CHEMBL2375265, “Novel oleanolic vinyl boronates: synthesis and antitumor activity” (Eur J Med Chem, 2013):
The source made the active and inactive calls. The rule behind the calls is not given here. Peptide text beside a SMILES is read from it. * marks the point of attachment. Cbz = O=C(OCc1ccccc1)*

Tests used:
[1] = Cytotoxicity against human fibroblasts assessed as growth inhibition after 48 hrs by MTT assay; format: cell-based; settings: Fibroblast
[2] = system: SW480; assay: Cytotoxicity against human SW480 cells assessed as growth inhibition after 48 hrs by MTT assay; format: functional, cell-based; settings: SW480, 48 h
[3] = system: SK-OV-3; assay: Cytotoxicity against human SKOV3 cells assessed as growth inhibition after 48 hrs by MTT assay; format: functional, cell-based; settings: SK-OV-3, 48 h
[4] = system: HeLa; assay: Cytotoxicity against human HeLa cells assessed as growth inhibition after 48 hrs by MTT assay; format: functional, cell-based
[5] = system: JIYOYE; assay: Cytotoxicity against human Jijoye cells assessed as growth inhibition after 48 hrs by MTT assay; format: functional, cell-based
[6] = system: K562; assay: Cytotoxicity against human K562 cells assessed as growth inhibition after 48 hrs by MTT assay; format: functional, cell-based; settings: K562, 48 h
[7] = system: Jurkat; assay: Cytotoxicity against human Jurkat cells assessed as growth inhibition after 48 hrs by MTT assay; format: functional, cell-based
[8] = system: Jurkat; assay: Inhibition of trypsin-like activity of proteasome isolated from human Jurkat cells using Boc-LRR-AMC as substrate assessed as residual activity at 10 uM incubated for 30 mins followed by substrate addition measured for 2 hrs by fluorescence assay relative to control; format: cell-free
[9] = system: Jurkat; assay: Inhibition of chymotrypsin-like activity of proteasome isolated from human Jurkat cells using Suc-LLVY-AMC as substrate assessed as residual activity at 10 uM incubated for 30 mins followed by substrate addition measured for 2 hrs by fluorescence assay relative to control; format: cell-free
[10] = system: Jurkat; assay: Inhibition of trypsin-like activity of proteasome isolated from human Jurkat cells using Boc-LRR-AMC as substrate assessed as residual activity at 100 uM incubated for 30 mins followed by substrate addition measured for 2 hrs by fluorescence assay relative to control; format: cell-free
[11] = system: Jurkat; assay: Inhibition of trypsin-like activity of proteasome isolated from human Jurkat cells using Boc-LRR-AMC as substrate assessed as residual activity at 50 uM incubated for 30 mins followed by substrate addition measured for 2 hrs by fluorescence assay relative to control; format: cell-free
[12] = system: Jurkat; assay: Inhibition of trypsin-like activity of proteasome isolated from human Jurkat cells using Boc-LRR-AMC as substrate assessed as residual activity at 25 uM incubated for 30 mins followed by substrate addition measured for 2 hrs by fluorescence assay relative to control; format: cell-free
[13] = system: Jurkat; assay: Inhibition of chymotrypsin-like activity of proteasome isolated from human Jurkat cells using Suc-LLVY-AMC as substrate assessed as residual activity at 100 uM incubated for 30 mins followed by substrate addition measured for 2 hrs by fluorescence assay relative to control; format: cell-free
[14] = system: Jurkat; assay: Inhibition of chymotrypsin-like activity of proteasome isolated from human Jurkat cells using Suc-LLVY-AMC as substrate assessed as residual activity at 50 uM incubated for 30 mins followed by substrate addition measured for 2 hrs by fluorescence assay relative to control; format: cell-free
[15] = system: Jurkat; assay: Inhibition of chymotrypsin-like activity of proteasome isolated from human Jurkat cells using Suc-LLVY-AMC as substrate assessed as residual activity at 25 uM incubated for 30 mins followed by substrate addition measured for 2 hrs by fluorescence assay relative to control; format: cell-free
[16] = system: Jurkat; assay: Cell cycle arrest in human Jurkat cells assessed at 20 uM by propidium iodide staining-based FACS flow cytometric analysis; format: functional
[17] = system: Jurkat; assay: Induction of apoptosis in human Jurkat cells assessed as caspase 3/7 activation at 20 uM after overnight incubation by luminescence assay; format: functional, cell-based
[18] = system: Jurkat; assay: Inhibition of proteasome in human Jurkat cells assessed as accumulation of ubiquitinated protein at 50 uM by Western blot analysis; format: cell-based
[19] = system: Jurkat; assay: Inhibition of trypsin-like activity of proteasome in human Jurkat cells at 50 uM after 30 mins by fluorescence assay; format: cell-based
[20] = system: Jurkat; assay: Inhibition of chymotrypsin-like activity of proteasome in human Jurkat cells assessed as residual activity at 50 uM after 30 mins by fluorescence assay relative to control; format: cell-based
[21] = system: Jurkat; assay: Induction of apoptosis in human Jurkat cells assessed as dead cells at 20 uM by propidium iodide/annexin V staining-based FACS flow cytometric analysis (reference value: 0.66%); format: functional
[22] = system: Jurkat; assay: Induction of apoptosis in human Jurkat cells assessed as late apoptotic cells at 20 uM by propidium iodide/annexin V staining-based FACS flow cytometric analysis (reference value: 0.37%); format: functional
[23] = system: Jurkat; assay: Induction of apoptosis in human Jurkat cells assessed as early apoptotic cells at 20 uM by propidium iodide/annexin V staining-based FACS flow cytometric analysis (reference value: 1.87%); format: functional
[24] = system: Jurkat; assay: Cell cycle arrest in human Jurkat cells assessed as accumulation at sub G0/G1 phase at 20 uM by propidium iodide staining-based FACS flow cytometric analysis (reference value: 4.81%); format: functional
[25] = system: Jurkat; assay: Cell cycle arrest in human Jurkat cells assessed as accumulation at G2/M phase at 20 uM by propidium iodide staining-based FACS flow cytometric analysis (reference value: 16.63%); format: functional
[26] = system: Jurkat; assay: Cell cycle arrest in human Jurkat cells assessed as accumulation at S phase at 20 uM by propidium iodide staining-based FACS flow cytometric analysis (reference value: 26.91%); format: functional
[27] = system: Jurkat; assay: Cell cycle arrest in human Jurkat cells assessed as accumulation at G0/G1 phase at 20 uM by propidium iodide staining-based FACS flow cytometric analysis (reference value: 52.59%); format: functional

COC(=O)[C@]12CCC(C)(C)C[C@H]1[C@H]1C(=O)C[C@@H]3[C@@]4(C)CC=C(B5OC(C)(C)C(C)(C)O5)C(C)(C)[C@@H]4CC[C@@]3(C)[C@]1(C)CC2
IC50 [1]: > 50 µM | IC50 [2]: > 50 µM | IC50 [3]: > 50 µM | IC50 [4]: > 50 µM | IC50 [5]: > 50 µM | IC50 [6]: > 50 µM | IC50 [7]: > 50 µM

COC(=O)[C@]12CCC(C)(C)C[C@H]1[C@H]1C(=O)C=C3[C@@]4(C)CC=C(B5OC(C)(C)C(C)(C)O5)C(C)(C)[C@@H]4CC[C@@]3(C)[C@]1(C)CC2
IC50 [1]: > 50 µM | IC50 [2]: > 50 µM | IC50 [3]: > 50 µM | IC50 [4]: > 50 µM | IC50 [5]: > 50 µM | IC50 [6]: > 50 µM | IC50 [7]: > 50 µM

CC(C)C[C@@H](C=O)NC(=O)[C@H](CC(C)C)NC(=O)[C@H](CC(C)C)NC(=O)OCc1ccccc1 (Cbz-Leu-Leu-Leu-aldehyde)
Activity [8]: < 20% | Activity [9]: < 20%

COC(=O)[C@H](C)NC(=O)[C@]12CCC(C)(C)C[C@H]1C1=CC[C@@H]3[C@@]4(C)CC=C(B5OC(C)(C)C(C)(C)O5)C(C)(C)[C@@H]4CC[C@@]3(C)[C@]1(C)CC2
IC50 [1]: > 50 µM | IC50 [2]: > 50 µM | IC50 [3]: > 50 µM | IC50 [4]: > 50 µM | IC50 [5]: > 50 µM | IC50 [6]: > 50 µM | IC50 [7]: > 50 µM

COC(=O)[C@]12CCC(C)(C)C[C@H]1C1=CC[C@@H]3[C@@]4(C)CC=C(B5OC(C)(C)C(C)(C)O5)C(C)(C)[C@@H]4CC[C@@]3(C)[C@]1(C)CC2
IC50 [1]: > 50 µM | IC50 [2]: > 50 µM | IC50 [3]: > 50 µM | IC50 [4]: > 50 µM | IC50 [5]: > 50 µM | IC50 [6]: > 50 µM | IC50 [7]: > 50 µM

CC1(C)CC[C@]2(C(N)=O)CC[C@]3(C)C(=CC[C@@H]4[C@@]5(C)CC=C(B6OC(C)(C)C(C)(C)O6)C(C)(C)[C@@H]5CC[C@]43C)[C@@H]2C1
Activity [10]: 72.5% | Activity [11]: 77.9% | Activity [12]: 81.6% | Activity [13]: 85.6% | Activity [14]: 92.4% | Activity [15]: 95.8% | Activity [16]: inactive | Activity [17]: Active | IC50 [1]: > 50 µM | IC50 [2]: > 50 µM | IC50 [3]: > 50 µM | IC50 [4]: 34.7 µM | IC50 [5]: 8.4 µM | IC50 [6]: 8.3 µM | IC50 [7]: 21.6 µM

COC(=O)CNC(=O)[C@]12CCC(C)(C)C[C@H]1C1=CC[C@@H]3[C@@]4(C)CC=C(B5OC(C)(C)C(C)(C)O5)C(C)(C)[C@@H]4CC[C@@]3(C)[C@]1(C)CC2
IC50 [1]: > 50 µM | IC50 [2]: > 50 µM | IC50 [3]: > 50 µM | IC50 [4]: > 50 µM | IC50 [5]: > 50 µM | IC50 [6]: > 50 µM | IC50 [7]: > 50 µM

COC(=O)[C@]12CCC(C)(C)C[C@H]1[C@H]1/C(=N\O)C[C@@H]3[C@@]4(C)CC=C(B5OC(C)(C)C(C)(C)O5)C(C)(C)[C@@H]4CC[C@@]3(C)[C@]1(C)CC2
IC50 [1]: > 50 µM | IC50 [2]: > 50 µM | IC50 [3]: > 50 µM | IC50 [4]: > 50 µM | IC50 [5]: > 50 µM | IC50 [6]: > 50 µM | IC50 [7]: > 50 µM

CC1(C)CC[C@]2(C(=O)O)CC[C@]3(C)C(=CC[C@@H]4[C@@]5(C)CC=C(B6OC(C)(C)C(C)(C)O6)C(C)(C)[C@@H]5CC[C@]43C)[C@@H]2C1
IC50 [1]: > 50 µM | IC50 [2]: > 50 µM | IC50 [3]: > 50 µM | IC50 [4]: > 50 µM | IC50 [5]: > 50 µM | IC50 [6]: > 50 µM | IC50 [7]: > 50 µM

CC1(C)CC[C@]2(C#N)CC[C@]3(C)C(=CC[C@@H]4[C@@]5(C)CC=C(B6OC(C)(C)C(C)(C)O6)C(C)(C)[C@@H]5CC[C@]43C)[C@@H]2C1
IC50 [1]: > 50 µM | IC50 [2]: > 50 µM | IC50 [3]: > 50 µM | IC50 [4]: > 50 µM | IC50 [5]: > 50 µM | IC50 [6]: > 50 µM | IC50 [7]: > 50 µM

CC1(C)CC[C@]2(C(=O)NCC(=O)O)CC[C@]3(C)C(=CC[C@@H]4[C@@]5(C)CC=C(B6OC(C)(C)C(C)(C)O6)C(C)(C)[C@@H]5CC[C@]43C)[C@@H]2C1
inhibition [18]: Active | inhibition [19]: Active | Activity [20]: 25% | Activity [10]: 51.4% | Activity [11]: 84.1% | Activity [12]: 85.3% | Activity [13]: 59.3% | Activity [14]: 64% | Activity [15]: 83.6% | Activity [21]: 19.81% | Activity [22]: 13.22% | Activity [23]: 3.73% | Activity [24]: 13.79% | Activity [25]: 10.6% | Activity [26]: 13.27% | Activity [27]: 82.2% | Activity [17]: Active | IC50 [1]: > 50 µM | IC50 [2]: 17.9 µM | IC50 [3]: 15.4 µM | IC50 [4]: 28 µM | IC50 [5]: 13.4 µM | IC50 [6]: 18.2 µM | IC50 [7]: 15.5 µM

C[C@H](NC(=O)[C@]12CCC(C)(C)C[C@H]1C1=CC[C@@H]3[C@@]4(C)CC=C(B5OC(C)(C)C(C)(C)O5)C(C)(C)[C@@H]4CC[C@@]3(C)[C@]1(C)CC2)C(=O)O
inhibition [18]: Active | inhibition [19]: Active | Activity [20]: 37% | Activity [10]: 50.8% | Activity [11]: 70.7% | Activity [12]: 85.1% | Activity [13]: 47.2% | Activity [14]: 84.3% | Activity [15]: 91.7% | Activity [21]: 16.33% | Activity [22]: 13.67% | Activity [23]: 5.37% | Activity [24]: 15.82% | Activity [25]: 12.19% | Activity [26]: 14.24% | Activity [27]: 58.78% | Activity [17]: Active | IC50 [1]: > 50 µM | IC50 [2]: 28.7 µM | IC50 [3]: 31.2 µM | IC50 [4]: 30.5 µM | IC50 [5]: 19.4 µM | IC50 [6]: 20.1 µM | IC50 [7]: 21.4 µM
